Measured values taken from EP4667458A1 (Kanaph Therapeutics Inc., priority 2023, dated 2024).

Molecular target: T1, SOS1 (Homo sapiens, UniProt Q07889)
T1 construct: adding equal amounts of HIS-SOS1cat (160 nM; Cytoskeleton, US); His; purchased Cytoskeleton, US
T1 sequence (Q07889 564-1049 limits assumed): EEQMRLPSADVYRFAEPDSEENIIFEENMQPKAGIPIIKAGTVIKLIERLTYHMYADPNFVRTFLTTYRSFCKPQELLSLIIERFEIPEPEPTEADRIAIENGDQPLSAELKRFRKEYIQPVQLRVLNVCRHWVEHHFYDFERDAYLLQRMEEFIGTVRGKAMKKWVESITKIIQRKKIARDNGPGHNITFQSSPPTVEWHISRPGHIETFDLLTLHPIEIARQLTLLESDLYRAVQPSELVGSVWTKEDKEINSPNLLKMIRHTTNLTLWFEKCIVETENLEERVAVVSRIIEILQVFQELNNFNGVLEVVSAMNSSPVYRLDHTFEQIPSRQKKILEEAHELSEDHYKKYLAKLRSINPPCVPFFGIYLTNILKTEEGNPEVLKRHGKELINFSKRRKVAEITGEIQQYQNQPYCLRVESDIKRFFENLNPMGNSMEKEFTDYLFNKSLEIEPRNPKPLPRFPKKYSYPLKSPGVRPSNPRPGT
Assay: SOS-catalyzed nucleotide exchange assay (HTRF, SOS1-mediated GTP loading of KRAS G12D)
Format: biochemical
Details: GST-KRAS G12D, HIS-SOS1cat, EDA-GTP-DY-647P1; compound 128 pM to 10 µM; read-out: SOS-catalyzed nucleotide exchange assay (IC50 range, Grade)
Description: SOS1 activity was measured by SOS1-mediated GTP loading quantification of KRAS^G12D. GTP-loaded KRAS^G12D was detected by HTRF (Homogeneous Time Resolved Fluorescence) using anti-GST terbium (Cisbio, France) as a donor and a fluorescence GTP analogue (EDA-GTP-DY-647P1, [DY-647P1-labeled 2'/3'-O-(2-aminoethyl-carbamoyl)guanosine-5'-triphosphate (Jena bioscience, Germany)]) as an acceptor.
Assay buffer was composed of 10 mM HEPES pH 7.4, 150 mM NaCl, 5 mM MgCl2, 1 mM DTT, 0.05% BSA Fraction V pH 7.0 (Sigma) and 0.0025% (v/v) Igepal (Sigma). KRAS^G12D working solution was prepared by adding equal amounts of GST-KRAS^G12D (100 nM) and anti-GST-terbium (2 nM; Cisbio, France) to the assay buffer and incubating on ice for 10 minutes. SOS1cat working solution was prepared by adding equal amounts of HIS-SOS1cat (160 nM; Cytoskeleton, US) and EDA-GTP-DY-647P1 (200 nM; Jena bioscience, Germany) to the assay buffer. Control solution was prepared by adding equal volumes of EDA-GTP-DY-647P1 and the assay buffer for normalization control to exclude GEF-independent GTP loading and background signals. In order to induce a reaction, 5 µL of the SOS1cat working solution or the control solution was injected into each well. 5 µL of a compound having various concentrations from 128 pM to 10 µM was added to wells containing the SOS1cat working solution and incubated at room temperature for 10 minutes to bind to SOS1.
10 µL of the KRAS^G12D solution was added to each well and incubated for 30 minutes at room temperature while shaking. HTRF was measured using a Thermo Varioskan (excitation 334 nm, emission 665 nm). The IC50 of each inhibitor was analyzed using Graphad Prism.
The SOS1 inhibitory activity of the Example compounds measured by the above method was evaluated based on the following criteria, and the results are shown in Table 29.

SMILES | IC50 [µM]
C[C@@H](NC(=O)c1ccc(=O)n(-c2ccccc2)n1)c1cccc([Si](C)(C)C)c1 [Example 61, 6-oxo-1-phenyl-N-[(1R)-1-(3-trimethylsilylphenyl)ethyl]pyridazine-3-carboxamide] | 1 to 10
C[C@@H](NC(=O)c1ccc(=O)n(-c2cccc(F)c2F)c1)c1cc(N)cc(C(F)(F)F)c1 [Example 94, N-[(1R)-1-[3-amino-5-(trifluoromethyl)phenyl]ethyl]-1-(2,3-difluorophenyl)-6-oxo-1,6-dihydropyridine-3-carboxamide] | < 1
COc1ccc(-n2nc(C(=O)N[C@H](C)c3cccc(C(F)(F)CO)c3F)ccc2=O)cc1 [Example 42, (R)-N-(1-(3-(1,1-difluoro-2-hydroxyethyl)-2-fluorophenyl)ethyl)-1-(4-methoxyphenyl)-6-oxo-1,6-dihydropyridazine-3-carboxamide] | < 1
CC(=O)Nc1cc(-n2cc(C(=O)N[C@H](C)c3cc(N)cc(C(F)(F)F)c3)ccc2=O)ccc1F [Example 113, 1-(3-acetamido-4-fluoro-phenyl)-N-[(1R)-1-[3-amino-5-(trifluoromethyl)phenyl]ethyl]-6-oxo-pyridine-3-carboxamide] | < 1
C[C@@H](NC(=O)c1ccc(=O)n(-c2ccccc2S(C)(=O)=O)n1)c1cc(N)cc(C(F)(F)F)c1 [Example 28, (R)-N-(1-(3-amino-5-(trifluoromethyl)phenyl)ethyl)-1-(2-(methylsulfonyl)phenyl)-6-oxo-1,6-dihydropyridazine-3-carboxamide] | > 10
C[C@@H](NC(=O)c1ccc(=O)n(C2CCS(=O)(=O)CC2)n1)c1cc(N)cc(C(F)(F)F)c1 [Example 117, N-[(1R)-1-[3-amino-5-(trifluoromethyl)phenyl]ethyl]-1-(1,1-dioxo-1λ^6-thian-4-yl)-6-oxo-1,6-dihydropyridazine-3-carboxamide] | 1 to 10
CC1CC=C(n2nc(C(=O)N[C@H](C)c3cc(N)cc(C(F)(F)F)c3)ccc2=O)CC1 (stereo partly drawn) [Example 66, N-[(1R)-1-[3-amino-5-(trifluoromethyl)phenyl]ethyl]-1-(4-methylcyclohex-1-en-1-yl)-6-oxo-1,6-dihydropyridazine-3-carboxamide] | 1 to 10
Cc1ccc(-n2nc(C(=O)N[C@H](C)c3cc(N)cc(C(F)(F)F)c3)ccc2=O)s1 [Example 22, N-[(1R)-1-[3-amino-5-(trifluoromethyl)phenyl]ethyl]-1-(5-methyl-2-thienyl)-6-oxo-pyridazine-3-carboxamide] | < 1
C[C@@H](NC(=O)c1ccc(=O)n(-c2ccccc2OC(F)(F)F)n1)c1cc(N)cc(C(F)(F)F)c1 [Example 45, N-[(1R)-1-[3-amino-5-(trifluoromethyl)phenyl]ethyl]-6-oxo-1-[2-(trifluoromethoxy)phenyl]pyridazine-3-carboxamide] | < 1
C[C@@H](NC(=O)c1ccc(=O)n(-c2cccc(C(=O)N3CCOCC3)c2)c1)c1cc(N)cc(C(F)(F)F)c1 [Example 75, N-[(1R)-1-[3-amino-5-(trifluoromethyl)phenyl]ethyl]-1-[3-(morpholine-4-carbonyl)phenyl]-6-oxo-1,6-dihydropyridine-3-carboxamide] | < 1
C[C@@H](NC(=O)c1ccc(=O)n(C2=CCOCC2)n1)c1cc(N)cc(C(F)(F)F)c1 [Example 128, N-[(1R)-1-[3-amino-5-(trifluoromethyl)phenyl]ethyl]-1-(3,6-dihydro-2H-pyran-4-yl)-6-oxo-1,6-dihydropyridazine-3-carboxamide] | < 1
C[C@@H](NC(=O)c1ccc(=O)n(-c2c(F)cccc2F)c1)c1cc(N)cc(C(F)(F)F)c1 [Example 97, N-[(1R)-1-[3-amino-5-(trifluoromethyl)phenyl]ethyl]-1-(2,6-difluorophenyl)-6-oxo-1,6-dihydropyridine-3-carboxamide] | 1 to 10

Next, values leading:

IC50 [µM] | SMILES
< 1 | C[C@@H](NC(=O)c1ccc(=O)n(-c2ccccc2C#N)n1)c1cc(N)cc(C(F)(F)F)c1 [Example 29, N-[(1R)-1-[3-amino-5-(trifluoromethyl)phenyl]ethyl]-1-(2-cyanophenyl)-6-oxo-pyridazine-3-carboxamide]
1 to 10 | C[C@@H](NC(=O)c1ccc(=O)n(-c2ccccc2)n1)c1ccc2ccccc2c1 [Example 8, N-[(1R)-1-(2-naphthyl)ethyl]-6-oxo-1-phenyl-pyridazine-3-carboxamide]
< 1 | C[C@@H](NC(=O)c1ccc(=O)n(-c2cccc(S(C)(=O)=O)c2)n1)c1cccc(C(F)(F)CO)c1 [Example 58, N-[(1R)-1-[3-(1,1-difluoro-2-hydroxy-ethyl)phenyl]ethyl]-1-(3-methylsulfonylphenyl)-6-oxo-pyridazine-3-carboxamide]
1 to 10 | C[C@@H](NC(=O)c1ccc(=O)n(-c2ccccc2)n1)c1cccc(Br)c1 [Example 2, N-[(1R)-1-(3-bromophenyl)ethyl]-6-oxo-1-phenyl-pyridazine-3-carboxamide]
1 to 10 | C[C@@H](NC(=O)c1ccc(=O)n(-c2ccccc2)n1)c1cccc2ccccc12 [Example 9, N-[(1R)-1-(1-naphthyl)ethyl]-6-oxo-1-phenyl-pyridazine-3-carboxamide]
< 1 | COc1ccccc1-n1nc(C(=O)N[C@H](C)c2cc(N)cc(C(F)(F)F)c2)ccc1=O [Example 23, N-[(1R)-1-[3-amino-5-(trifluoromethyl)phenyl]ethyl]-1-(2-methoxyphenyl)-6-oxo-pyridazine-3-carboxamide]
< 1 | C[C@@H](NC(=O)c1ccc(=O)n(-c2ccncc2)n1)c1cc(N)cc(C(F)(F)F)c1 [Example 21, N-[(1R)-1-[3-amino-5-(trifluoromethyl)phenyl]ethyl]-6-oxo-1-(4-pyridyl)pyridazine-3-carboxamide]
< 1 | C[C@@H](NC(=O)c1cc(C#N)c(=O)n(-c2ccccc2)n1)c1cc(N)cc(C(F)(F)F)c1 [Example 56, N-[(1R)-1-[3-amino-5-(trifluoromethyl)phenyl]ethyl]-5-cyano-6-oxo-1-phenyl-pyridazine-3-carboxamide]
< 1 | COc1cccc(-n2nc(C(=O)N[C@H](C)c3cc(N)cc(C(F)(F)F)c3)ccc2=O)c1 [Example 40, N-[(1R)-1-[3-amino-5-(trifluoromethyl)phenyl]ethyl]-1-(3-methoxyphenyl)-6-oxo-pyridazine-3-carboxamide]
< 1 | C[C@@H](NC(=O)c1ccc(=O)n(-c2ccccc2)n1)c1cccc(C(F)(F)F)c1 [Example 15, 6-oxo-1-phenyl-N-[(1R)-1-[3-(trifluoromethyl)phenyl]ethyl]pyridazine-3-carboxamide]
> 10 | Cc1ccc([C@@H](C)NC(=O)c2ccc(=O)n(-c3ccccc3)n2)cc1 [Example 7, (R)-6-oxo-1-phenyl-N-(1-(p-tolyl)ethyl)-1,6-dihydropyridazine-3-carboxamide]
< 1 | C[C@@H](NC(=O)c1ccc(=O)n(-c2ccccc2F)n1)c1cc(N)cc(C(F)(F)F)c1 [Example 46, (R)-N-(1-(3-amino-5-(trifluoromethyl)phenyl)ethyl)-1-(2-fluorophenyl)-6-oxo-1,6-dihydropyridazine-3-carboxamide]
< 1 | C[C@@H](NC(=O)c1ccc(=O)n(-c2ccccc2N)n1)c1cc(N)cc(C(F)(F)F)c1 [Example 51, (R)-N-(1-(3-amino-5-(trifluoromethyl)phenyl)ethyl)-1-(2-aminophenyl)-6-oxo-1,6-dihydropyridazine-3-carboxamide]
< 1 | C[C@@H](NC(=O)c1ccc(=O)n(-c2ccccc2)n1)c1cccc(C(F)(F)CO)c1F [Example 59, N-[(1R)-1-[3-(1,1-difluoro-2-hydroxy-ethyl)-2-fluoro-phenyl]ethyl]-6-oxo-1-phenyl-pyridazine-3-carboxamide]
< 1 | C[C@@H](NC(=O)c1ccc(=O)n(-c2ccccn2)n1)c1cc(N)cc(C(F)(F)F)c1 [Example 20, N-[(1R)-1-[3-amino-5-(trifluoromethyl)phenyl]ethyl]-6-oxo-1-(2-pyridyl)pyridazine-3-carboxamide]
